Results taken from ChEMBL document CHEMBL2034842, “Synthesis, anti-Candida activity, and cytotoxicity of new (4-(4-iodophenyl)thiazol-2-yl)hydrazine derivatives” (Eur J Med Chem, 2012).
Values after ≈ are worked out from the molar mass of the structure shown.

Columns and labels:
Format in all cases: functional
Candida albicans = assay: Antifungal activity against 10 strains of Candida albicans after 24 hrs by […]
[Candida] sake = Antifungal activity against 2 strains of Candida sake after 24 hrs by […]; conditions: Fermentozyma sake
Candida parapsilosis = assay: Antifungal activity against 4 strains of Candida parapsilosis after 24 hrs by […]; conditions: Lodderomyces parapsilosis
Nakaseomyces glabratus = assay: Antifungal activity against 4 strains of Candida glabrata after 24 hrs by […]
Pichia kudriavzevii = assay: Antifungal activity against 3 strains of Candida krusei after 24 hrs by […]
Candida tropicalis = assay: Antifungal activity against 4 strains of Candida tropicalis after 24 hrs by […]
Staphylococcus aureus = assay: Antibacterial activity against Staphylococcus aureus after 18 to 22 hrs by […]
Staphylococcus warneri = assay: Antibacterial activity against Staphylococcus warneri after 18 to 22 hrs by […]
Klebsiella aerogenes = assay: Antibacterial activity against Enterobacter aerogenes after 18 to 22 hrs by […]
Klebsiella pneumoniae = assay: Antibacterial activity against Klebsiella pneumoniae after 18 to 22 hrs by […]
Streptococcus pyogenes = assay: Antibacterial activity against Streptococcus pyogenes after 18 to 22 hrs by […]
Escherichia coli = assay: Antibacterial activity against Escherichia coli after 18 to 22 hrs by […]
Proteus vulgaris = assay: Antibacterial activity against Proteus vulgaris after 18 to 22 hrs by […]
Enterococcus faecalis = assay: Antibacterial activity against Enterococcus faecalis after 18 to 22 hrs by […]

| SMILES | MIC (Candida albicans) | MIC ([Candida] sake) | MIC (Candida parapsilosis) | MIC (Nakaseomyces glabratus) | MIC (Pichia kudriavzevii) | MIC (Candida tropicalis) | MIC (Staphylococcus aureus) | MIC (Staphylococcus warneri) | MIC (Klebsiella aerogenes) | MIC (Klebsiella pneumoniae) | MIC (Streptococcus pyogenes) | MIC (Escherichia coli) | MIC (Proteus vulgaris) | MIC (Enterococcus faecalis) |
| --- | --- | --- | --- | --- | --- | --- | --- | --- | --- | --- | --- | --- | --- | --- |
| OC(Cn1cncn1)(Cn1cncn1)c1ccc(F)cc1F [FLUCONAZOLE] | 4 µg/mL (≈ 13.1 µM) | 4 µg/mL (≈ 13.1 µM) | 4 µg/mL (≈ 13.1 µM) | 4 µg/mL (≈ 13.1 µM) | 4 µg/mL (≈ 13.1 µM) | 4 µg/mL (≈ 13.1 µM) | – | – | – | – | – | – | – | – |
| C/C(=N\Nc1nc(-c2ccc(I)cc2)cs1)c1ccco1 | 0.25 µg/mL (≈ 0.611 µM) | 128 µg/mL (≈ 313 µM) | 2 µg/mL (≈ 4.89 µM) | 2 µg/mL (≈ 4.89 µM) | 128 µg/mL (≈ 313 µM) | 0.5 µg/mL (≈ 1.22 µM) | 32 µg/mL (≈ 78.2 µM) | 32 µg/mL (≈ 78.2 µM) | > 128 µg/mL | > 128 µg/mL | 2 µg/mL (≈ 4.89 µM) | > 128 µg/mL | > 128 µg/mL | 8 µg/mL (≈ 19.5 µM) |
| Ic1ccc(-c2csc(N/N=C/c3cccnc3)n2)cc1 | 2 µg/mL (≈ 4.92 µM) | 64 µg/mL (≈ 158 µM) | 2 µg/mL (≈ 4.92 µM) | 4 µg/mL (≈ 9.85 µM) | 64 µg/mL (≈ 158 µM) | 2 µg/mL (≈ 4.92 µM) | 32 µg/mL (≈ 78.8 µM) | > 128 µg/mL | 16 µg/mL (≈ 39.4 µM) | > 128 µg/mL | 32 µg/mL (≈ 78.8 µM) | 16 µg/mL (≈ 39.4 µM) | > 128 µg/mL | 32 µg/mL (≈ 78.8 µM) |
| CC1CCCC/C1=N\Nc1nc(-c2ccc(I)cc2)cs1 (stereo not drawn) | 0.25 µg/mL (≈ 0.608 µM) | 128 µg/mL (≈ 311 µM) | 2 µg/mL (≈ 4.86 µM) | 2 µg/mL (≈ 4.86 µM) | 128 µg/mL (≈ 311 µM) | 0.5 µg/mL (≈ 1.22 µM) | 8 µg/mL (≈ 19.4 µM) | 4 µg/mL (≈ 9.72 µM) | > 128 µg/mL | 32 µg/mL (≈ 77.8 µM) | 8 µg/mL (≈ 19.4 µM) | 16 µg/mL (≈ 38.9 µM) | > 128 µg/mL | 8 µg/mL (≈ 19.4 µM) |
| C/C(=N\Nc1nc(-c2ccc(I)cc2)cs1)c1cc2ccccc2oc1=O | 2 µg/mL (≈ 4.1 µM) | 4 µg/mL (≈ 8.21 µM) | 2 µg/mL (≈ 4.1 µM) | 4 µg/mL (≈ 8.21 µM) | 2 µg/mL (≈ 4.1 µM) | 2 µg/mL (≈ 4.1 µM) | 32 µg/mL (≈ 65.7 µM) | 4 µg/mL (≈ 8.21 µM) | > 128 µg/mL | > 128 µg/mL | 4 µg/mL (≈ 8.21 µM) | 16 µg/mL (≈ 32.8 µM) | > 128 µg/mL | 8 µg/mL (≈ 16.4 µM) |
| Ic1ccc(-c2csc(NN=C3CCCCCC3)n2)cc1 | 0.25 µg/mL (≈ 0.608 µM) | 64 µg/mL (≈ 156 µM) | 2 µg/mL (≈ 4.86 µM) | 2 µg/mL (≈ 4.86 µM) | 64 µg/mL (≈ 156 µM) | 0.5 µg/mL (≈ 1.22 µM) | > 128 µg/mL | > 128 µg/mL | 16 µg/mL (≈ 38.9 µM) | > 128 µg/mL | 32 µg/mL (≈ 77.8 µM) | 16 µg/mL (≈ 38.9 µM) | 16 µg/mL (≈ 38.9 µM) | 32 µg/mL (≈ 77.8 µM) |
| CC1CCC(=NNc2nc(-c3ccc(I)cc3)cs2)CC1 (stereo not drawn) | 0.5 µg/mL (≈ 1.22 µM) | 64 µg/mL (≈ 156 µM) | 2 µg/mL (≈ 4.86 µM) | 2 µg/mL (≈ 4.86 µM) | 64 µg/mL (≈ 156 µM) | 2 µg/mL (≈ 4.86 µM) | 32 µg/mL (≈ 77.8 µM) | 32 µg/mL (≈ 77.8 µM) | > 128 µg/mL | > 128 µg/mL | 2 µg/mL (≈ 4.86 µM) | > 128 µg/mL | > 128 µg/mL | 4 µg/mL (≈ 9.72 µM) |
| C/C(=N\Nc1nc(-c2ccc(I)cc2)cs1)c1ccccn1 | 0.25 µg/mL (≈ 0.595 µM) | 64 µg/mL (≈ 152 µM) | 2 µg/mL (≈ 4.76 µM) | 2 µg/mL (≈ 4.76 µM) | 64 µg/mL (≈ 152 µM) | 0.5 µg/mL (≈ 1.19 µM) | 32 µg/mL (≈ 76.1 µM) | > 128 µg/mL | > 128 µg/mL | 32 µg/mL (≈ 76.1 µM) | > 128 µg/mL | > 128 µg/mL | > 128 µg/mL | > 128 µg/mL |
| Ic1ccc(-c2csc(NN=C3CCCCC3)n2)cc1 | 0.5 µg/mL (≈ 1.26 µM) | 16 µg/mL (≈ 40.3 µM) | 2 µg/mL (≈ 5.03 µM) | 2 µg/mL (≈ 5.03 µM) | 2 µg/mL (≈ 5.03 µM) | 2 µg/mL (≈ 5.03 µM) | 32 µg/mL (≈ 80.5 µM) | 32 µg/mL (≈ 80.5 µM) | > 128 µg/mL | > 128 µg/mL | 8 µg/mL (≈ 20.1 µM) | > 128 µg/mL | > 128 µg/mL | 32 µg/mL (≈ 80.5 µM) |
